{"source": "paper PMC10846240", "about": "“Pharmacokinetic/pharmacodynamic integration of amphenmulin: a novel pleuromutilin derivative against Mycoplasma gallisepticum” (Microbiology Spectrum, 2023)", "key": {"[1]": {"system": "M. gallisepticum S6 strain", "assay": "Susceptibility assay, broth microdilution (MIC, MBC)", "format": "cell-based, Mycoplasma gallisepticum", "description": "(§1) The minimum inhibitory concentration (MIC) of amphenmulin against M. gallisepticum S6 strain was determined with reference to the protocols previously reported ([16], [17]). The broth microdilution method was performed using 96-well plates to achieve a final titer of approximately 10^7 colony-forming units (CFU)/mL of M. gallisepticum in each well. The final concentrations tested of amphenmulin ranged from 0.488 × 10^−3 to 0.125 µg/mL. Concurrently, a growth control (without drug), an end-point control (blank medium), and a sterile control (sterile broth) were also implemented. […] For the agar dilution method, M. gallisepticum was inoculated and cultured on agar plates containing a twofold dilution series of amphenmulin concentrations, and the MIC was the lowest drug concentration that inhibited growth. Additionally, following the procedure of broth microdilution, the initial culture before incubation and the samples from wells where the color remained unchanged after 48 h of incubation were subjected to 10-fold serial dilutions. Each dilution sample (10 µL) was then plated on drug-free agar for colony counting."}, "[2]": {"system": "M. gallisepticum S6 strain", "assay": "Susceptibility assay, agar dilution (MIC, MIC99, MPC)", "format": "cell-based, Mycoplasma gallisepticum", "set-up": "MPC: unit not given here", "description": "as §1\nWe also determined the minimum concentration inhibiting colony formation by 99% (MIC99) of amphenmulin against the S6 strain by slightly modifying the existing methods ([18], [19]). […] By counting the colony growth of M. gallisepticum inoculated on these drug-containing agar plates and performing linear regression with drug concentration, we calculated the amphenmulin concentration that inhibits 99% growth of the S6 strain.\nFurthermore, we determined the mutant prevention concentration (MPC) of amphenmulin against the S6 strain by agar dilution method ([20]). Briefly, M. gallisepticum at exponential phase was enriched to ≥10^9 CFU/mL by centrifugation and cultured as described above. The lowest drug concentration that inhibited mycoplasma growth in the agar plate was determined as the primary MPC (MPCpr), and the determination was repeated after linearly reducing the MPCpr to 0.5 MPCpr at 10% drug concentration. The final mycoplasma-free growth concentration was the MPC. All the experiments of the above pharmacodynamic studies were conducted in triplicate."}, "[3]": {"system": "M. gallisepticum strain S6", "assay": "Static time-kill curves and Sigmoid Emax fit of kill rate", "format": "cell-based, Mycoplasma gallisepticum", "settings": "for EC50: Mycoplasmoides gallisepticum, read-out: EC50 (concentration at half-maximal kill rate); for decrease of mycoplasma counts / type of effect: static; for decrease of mycoplasma counts: within 48 h", "description": "Based on the MIC value from broth microdilution method, 7 mL blank medium, 0.2 mL amphenmulin solution, and 0.8 mL M. gallisepticum suspension were taken into 10-mL Celine bottles to make the final mycoplasma count of 10^7 CFU/mL, as well as final concentrations of amphenmulin of 1, 2, 4, 6, 8, 16, 32, and 64 MIC, respectively. Growth control (without drug) and negative control (blank medium) were also set up for culture. Then at 0, 6, 9, 12, 24, 36, and 48 h, 100 µL of each culture was taken for counting using the aforementioned method, with a lower limit of 100 CFU/mL. The experiment was repeated three times.\nThe efficacy of amphenmulin against M. gallisepticum was measured by the kill rate per unit of time. Considering the growth of M. gallisepticum observed in preliminary experiments, this study selected seven time periods of 0–24, 0–36, 0–48, 6–24, 6–36, 6–48, and 12–48 h to calculate the kill rates of amphenmulin. The Sigmoid Emax model in Phoenix was used to fit the relationship between mean kill rate and drug concentration, which is shown below:\nE, kill rate of amphenmulin against M. gallisepticum within a period; E0, change rate of M. gallisepticum in the control group (without drug); Emax, maximum kill rate within a period; Ce, concentration of amphenmulin; EC50, drug concentration at half-maximal kill rate; N, Hill coefficient, reflecting the slope of the kill rate–concentration curve."}, "[4]": {"system": "M. gallisepticum", "assay": "In vitro dynamic model (one-compartment, first-order elimination)", "format": "cell-based, Mycoplasma gallisepticum", "description": "According to previous reports ([21][–][23]), an in vitro model compatible with M. gallisepticum growth and amphenmulin pharmacokinetics was developed ([24]). It comprised a reservoir chamber containing fresh, drug-free medium; a reaction chamber with a three-necked flask where amphenmulin interacts with M. gallisepticum, containing 300 mL of medium in the outer chamber (external compartment, EC) and 10 mL of M. gallisepticum culture (10^7 CFU/mL) in a semipermeable membrane chamber (internal compartment, IC); and a waste chamber collecting effluent, which were connected via tubing and controlled by a peristaltic pump (Fig. 2). In this model, the flow rate was calculated as 1.63 mL/min from the reaction chamber volume and amphenmulin’s elimination half-life (T1/2Ke) after intravascular administration in chickens, enabling dynamic changes in drug concentrations that simulate amphenmulin elimination in chickens and its activity against M. gallisepticum. The in vitro elimination of amphenmulin followed first-order kinetics:\nwhere C0 is the initial amphenmulin concentration, C is the amphenmulin concentration at time t, k is the elimination rate constant, and t is the time after dosing. […]\nThe determination of amphenmulin in the medium referenced our laboratory’s method for extracting tiamulin ([25]) and was also detected by the HPLC-MS/MS method mentioned in the PK section."}, "[5]": {"set-up": "method as in PMID 32079232", "settings": "mice; cited from earlier work"}, "[6]": {"settings": "Mycoplasmoides gallisepticum, S6STRAIN"}}, "note": "Read-outs that look alike come from different tables or passages of the source."}
{"smiles": "C=C[C@]1(C)C[C@@H](OC(=O)CSc2ccccc2N)[C@]2(C)[C@H](C)CC[C@]3(CCC(=O)[C@H]32)[C@@H](C)[C@@H]1O", "note": "[amphenmulin, 22-(2-amino-phenylsulfanyl)-22-deoxypleuromutilin]", "values": [{"measurement": "MIC", "setting": "[1]; Mycoplasmoides gallisepticum, S6STRAIN, broth microdilution, inoculum 10^7 CFU/mL, strain S6", "value": 0.0039, "unit": "µg/mL"}, {"measurement": "MBC", "setting": "[1]; Mycoplasmoides gallisepticum, S6STRAIN, inoculum 10^7 CFU/mL, reduction > 3 Log10CFU/mL after 48 h", "value": 0.0156, "unit": "µg/mL"}, {"measurement": "MIC at inoculum levels of 107, 106, and 105", "setting": "[1]; early pre-experiments (response to reviewer)", "value": "no significant difference"}, {"measurement": "MPC relative to MIC99", "setting": "[2]", "value": "about 6.5 times"}, {"measurement": "MIC", "setting": "[2]; [6]", "value": 0.0078, "unit": "µg/mL"}, {"measurement": "MIC99", "setting": "[2]; [6]", "value": 0.0077, "unit": "µg/mL"}, {"measurement": "MPC", "setting": "[2]; agar dilution, inoculum 10^9 CFU/mL", "value": 0.0500}, {"measurement": "mutation selection window (MSW)", "setting": "[2]; between MIC99 and MPC", "value": "0.77 × 10^−2–0.05 µg/mL"}, {"measurement": "EC50", "setting": "[3]; S6, period 0–24 h", "value": 0.0325, "unit": "µg/mL"}, {"measurement": "EC50", "setting": "[3]; S6, period 0–36 h", "value": 0.0914, "unit": "µg/mL"}, {"measurement": "EC50", "setting": "[3]; S6, period 0–48 h", "value": 0.913, "unit": "µg/mL"}, {"measurement": "EC50", "setting": "[3]; S6, period 6–24 h", "value": 0.0082, "unit": "µg/mL"}, {"measurement": "EC50", "setting": "[3]; S6, period 6–36 h", "value": 0.0053, "unit": "µg/mL"}, {"measurement": "EC50", "setting": "[3]; S6, period 6–48 h", "value": 0.0526, "unit": "µg/mL"}, {"measurement": "EC50", "setting": "[3]; S6, period 12–48 h", "value": 0.524, "unit": "µg/mL"}, {"measurement": "Emax (maximum kill rate)", "setting": "[3]; period 0–24 h", "value": 0.1261, "unit": "h⁻¹"}, {"measurement": "Emax (maximum kill rate)", "setting": "[3]; period 0–36 h", "value": 0.1817, "unit": "h⁻¹"}, {"measurement": "Emax (maximum kill rate)", "setting": "[3]; period 0–48 h", "value": 0.3277, "unit": "h⁻¹"}, {"measurement": "Emax (maximum kill rate)", "setting": "[3]; period 6–24 h", "value": 0.0805, "unit": "h⁻¹"}, {"measurement": "Emax (maximum kill rate)", "setting": "[3]; period 6–36 h", "value": 0.0821, "unit": "h⁻¹"}, {"measurement": "Emax (maximum kill rate)", "setting": "[3]; period 6–48 h", "value": 0.1743, "unit": "h⁻¹"}, {"measurement": "Emax (maximum kill rate)", "setting": "[3]; period 12–48 h", "value": 0.2880, "unit": "h⁻¹"}, {"measurement": "decrease of mycoplasma counts", "setting": "[3]; 1 MIC", "value": 0.44, "unit": "Log10CFU/mL"}, {"measurement": "type of effect", "setting": "[3]; 2–32 MIC", "value": "bacteriostatic effect"}, {"measurement": "decrease of mycoplasma counts", "setting": "[3]; 2–32 MIC", "value": "0.57–2.7 Log10CFU/mL"}, {"measurement": "type of effect", "setting": "[3]; 64 MIC", "value": "bactericidal effect"}, {"measurement": "decrease of mycoplasma counts", "setting": "[3]; 64 MIC", "value": 3.85, "unit": "Log10CFU/mL"}, {"measurement": "mycoplasma numbers at the highest dose", "setting": "[4]; counting limit", "value": "< 100", "unit": "CFU/mL"}, {"measurement": "maximum decrease of M. gallisepticum counts within 0–72 h", "setting": "[4]; doses of 0.1–0.5 μg/mL", "value": "≤ 2.82", "unit": "Log10CFU/mL"}, {"measurement": "oral bioavailability", "setting": "[5]", "value": 13.65, "unit": "%"}]}
